Values joined by “and” are separate entries in the source; they are usually repeats but may differ in a detail not shown here. Identical values can stand only once.
Biological target: T1, FPRL-1 (Homo sapiens, UniProt P25090)
T1 construct: expressed in transfected cells
T1 sequence (P25090 1-351): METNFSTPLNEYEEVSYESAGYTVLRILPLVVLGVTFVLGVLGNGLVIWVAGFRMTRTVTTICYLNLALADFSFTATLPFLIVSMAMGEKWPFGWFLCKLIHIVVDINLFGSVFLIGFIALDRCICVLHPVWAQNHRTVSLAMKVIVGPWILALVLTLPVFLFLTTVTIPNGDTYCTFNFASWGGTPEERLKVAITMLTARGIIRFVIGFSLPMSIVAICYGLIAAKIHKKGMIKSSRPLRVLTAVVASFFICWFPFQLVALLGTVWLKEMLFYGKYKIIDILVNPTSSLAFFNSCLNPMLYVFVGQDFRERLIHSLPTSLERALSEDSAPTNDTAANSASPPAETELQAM
Assay: Compound-induced calcium activity on FLIPR Tetra in CHO-Ga16 cells stably expressing FPRL1
Format: cell-based
Conditions: for EC50: compounds tested at 0.61 to 10,000 nM; for FPRL-1 Ga16-CHO (Rel. eff.): relative efficacy
Description: CHO-Ga16 cells stably expressing FPRL1 were cultured in (F12, 10% FBS, 1% PSA, 400 μg/ml geneticin and 50 μg/ml hygromycin) and HEK-Gqi5 cells stable expressing FPR1 were cultured in (DMEM high glucose, 10% FBS, 1% PSA, 400 μg/ml geneticin and 50 μg/ml hygromycin). In general, the day before the experiment, 18,000 cells/well were placed in a 384-well clear bottom poly-d-lysine coated plate. The following day the screening compound-induced calcium activity was assayed on the FLIPR^Tetra. The drug plates were prepared in 384-well microplates using the EP3 and the MultiPROBE robotic liquid handling systems. Compounds were tested at concentrations ranging from 0.61 to 10,000 nM. Results are expressed as EC50 (nM) and efficacy values.

## O=C(Nc1ccc(Br)cc1F)N[C@@H](Cc1ccccc1)C(=O)O [Compound 1, (2S)-2-({[(4-Bromo-2-fluorophenyl)amino]carbonyl}amino)-3-phenylpropanoic acid]
  EC50: 51 nM
  FPRL-1 Ga16-CHO (Rel. eff.): (0.88)

## Cc1cc(Br)ccc1NC(=O)N[C@@H](Cc1ccccc1)C(=O)O [Compound 2, (2S)-2-({[(4-Bromo-2-methylphenyl)amino]carbonyl}amino)-3-phenylpropanoic acid]
  EC50: 1550 nM
  FPRL-1 Ga16-CHO (Rel. eff.): (1.0)

## O=C(Nc1c(F)cc(Br)cc1F)N[C@@H](Cc1ccccc1)C(=O)O [Compound 3, (2S)-2-({[(4-Bromo-2,6-difluorophenyl)amino]carbonyl}amino)-3-phenylpropanoic acid]
  EC50: 563 nM
  FPRL-1 Ga16-CHO (Rel. eff.): (1.0)

## Cc1cc(Br)cc(C)c1NC(=O)N[C@@H](Cc1ccccc1)C(=O)O [Compound 4, (2S)-2-({[(4-Bromo-2,6-dimethylphenyl)amino]carbonyl}amino)-3-phenylpropanoic acid]
  EC50: 2400 nM
  FPRL-1 Ga16-CHO (Rel. eff.): (0.82)

## O=C(Nc1ccc(Cl)cc1Cl)N[C@@H](Cc1ccccc1)C(=O)O [Compound 5, (2S)-2-({[(2,4-Dichlorophenyl)amino]carbonyl}amino)-3-phenylpropanoic acid]
  EC50: 1150 nM
  FPRL-1 Ga16-CHO (Rel. eff.): (1.0)

## CC[C@H](C)[C@H](NC(=O)Nc1ccc(Br)cc1F)C(=O)O [Compound 7, (2S,3S)-2-({[(4-Bromo-2-fluorophenyl)amino]carbonyl}amino)-3-methylpentanoic acid]
  EC50: 8 nM
  FPRL-1 Ga16-CHO (Rel. eff.): (0.89)

## O=C(Nc1ccc(Br)cc1F)N[C@H](C(=O)O)c1ccccc1 [Compound 8, (2S)-({[(4-Bromo-2-fluorophenyl)amino]carbonyl}amino)(phenyl)acetic acid]
  EC50: 88 nM
  FPRL-1 Ga16-CHO (Rel. eff.): (1.02)

## O=C(Nc1ccc(Br)c2ccccc12)N[C@@H](Cc1ccccc1)C(=O)O [Compound 10, (2S)-2-({[(4-Bromo-1-naphthyl)amino]carbonyl}amino)-3-phenylpropanoic acid]
  EC50: 5100 nM
  FPRL-1 Ga16-CHO (Rel. eff.): (0.53)

## CC(C)C[C@H](NC(=O)Nc1ccc(SC(F)(F)F)cc1)C(=O)O [Compound 11, (2S)-4-Methyl-2-{[({4-[(trifluoromethyl)thio]phenyl}amino)carbonyl]amino}pentanoic acid]
  EC50: 2380 nM
  FPRL-1 Ga16-CHO (Rel. eff.): (0.64)

## CC(C)C[C@H](NC(=O)Nc1ccc(C(F)(F)F)cc1)C(=O)O [Compound 12, (2S)-4-Methyl-2-[({[4-(trifluoromethyl)phenyl]amino}carbonyl)amino]pentanoic acid]
  EC50: 29 nM
  FPRL-1 Ga16-CHO (Rel. eff.): (0.94)

## CSCC[C@H](NC(=O)Nc1ccc(Br)cc1)C(=O)O [Compound 14, (2S)-2-({[(4-Bromophenyl)amino]carbonyl}amino)-4-(methylthio)butanoic acid]
  EC50: 75 nM
  FPRL-1 Ga16-CHO (Rel. eff.): (1.00)

## CSc1ccc(NC(=O)N[C@@H](Cc2ccccc2)C(=O)O)cc1 [Compound 15, (2S)-2-[({[4-(Methylthio)phenyl]amino}carbonyl)amino]-3-phenylpropanoic acid]
  EC50: 77 nM
  FPRL-1 Ga16-CHO (Rel. eff.): (0.87)

## O=C(Nc1ccc(Br)cc1)NC(Cc1ccccn1)C(=O)O (stereo not shown) [Compound 16, 2-({[(4-Bromophenyl)amino]carbonyl}amino)-3-pyridin-2-ylpropanoic acid]
  EC50: 488 nM
  FPRL-1 Ga16-CHO (Rel. eff.): (1.0)

## O=C(Nc1ccc(Br)cc1F)NC(Cc1ccccn1)C(=O)O (stereo not shown) [Compound 17, 2-({[(4-Bromo-2-fluorophenyl)amino]carbonyl}amino)-3-pyridin-2-ylpropanoic acid]
  EC50: 713 nM
  FPRL-1 Ga16-CHO (Rel. eff.): (1.0)

## O=C(Nc1ccc(Br)cc1F)NC(Cc1c[nH]c2ccccc12)C(=O)O (stereo not shown) [Compound 19, 2-({[(4-Bromo-2-fluorophenyl)amino]carbonyl}amino)-3-(1H-indol-3-yl)propanoic acid]
  EC50: 120 nM
  FPRL-1 Ga16-CHO (Rel. eff.): (1.04)

## O=C(Nc1ncc2cc(Br)ccc2n1)NC(Cc1ccccc1)C(=O)O (stereo not shown) [Compound 20, 2-({[(6-Bromoquinazolin-2-yl)amino]carbonyl}amino)-3-phenylpropanoic acid]
  FPRL-1 Ga16-CHO (Rel. eff.): (0.25)

## CSCCC(NC(=O)Nc1ccc(Br)cc1)C(=O)O (stereo not shown) [Compound 21, 2-({[(4-Bromophenyl)amino]carbonyl}amino)-4-(methylthio)butanoic acid]
  EC50: 93 nM
  FPRL-1 Ga16-CHO (Rel. eff.): (0.94)

## O=C(Nc1ccc(C(F)(F)F)cc1)NC(Cc1ccccc1)C(=O)O (stereo not shown) [Compound 22, 3-Phenyl-2-({[4-(trifluoromethyl)phenyl]carbamoyl}amino)propanoic acid]
  EC50: 91 nM
  FPRL-1 Ga16-CHO (Rel. eff.): (1.05)

## CSc1ccc(NC(=O)NC(Cc2ccccc2)C(=O)O)cc1 (stereo not shown) [Compound 23, 2-[({[4-(Methylthio)phenyl]amino}carbonyl)amino]-3-phenylpropanoic acid]
  EC50: 169 nM
  FPRL-1 Ga16-CHO (Rel. eff.): (0.76)

## CC(C)CC(C)(NC(=O)Nc1ccc(Br)cc1)C(=O)O (stereo not shown) [Compound 24, 2-({[(4-Bromophenyl)amino]carbonyl}amino)-2,4-dimethylpentanoic acid]
  EC50: 16 nM
  FPRL-1 Ga16-CHO (Rel. eff.): (0.95)

## CCC(CC)(NC(=O)Nc1ccc(Br)cc1)C(=O)O [Compound 25, 2-({[(4-Bromophenyl)amino]carbonyl}amino)-2-ethylbutanoic acid]
  EC50: 24 nM
  FPRL-1 Ga16-CHO (Rel. eff.): (1.03)

## NC(=O)[C@H](Cc1ccccc1)NC(=O)Nc1ccc(Br)cc1 [Compound 26, (2S)-2-({[(4-Bromophenyl)amino]carbonyl}amino)-3-phenylpropanamide]
  EC50: 47 nM and 29 nM

## CC(C)C[C@H](NC(=O)Nc1ccc(Br)cc1F)C(N)=O [Compound 27, (2S)-2-({[(4-Bromo-2-fluorophenyl)amino]carbonyl}amino)-4-methylpentanamide]
  EC50: 120 nM
  FPRL-1 Ga16-CHO (Rel. eff.): (1.13)

## CC(C)C[C@H](NC(=O)Nc1ccc(Br)cc1)C(N)=O [Compound 28, (2S)-2-({[(4-Bromophenyl)amino]carbonyl}amino)-4-methylpentanamide]
  EC50: 48 nM
  FPRL-1 Ga16-CHO (Rel. eff.): (0.91)

## CC[C@H](C)[C@H](NC(=O)Nc1ccc(Br)cc1F)C(N)=O [Compound 29, (2S,3S)-2-({[(4-Bromo-2-fluorophenyl)amino]carbonyl}amino)-3-methylpentanamide]
  EC50: 241 nM
  FPRL-1 Ga16-CHO (Rel. eff.): (0.78)

## CCC[C@H](NC(=O)Nc1ccc(Br)cc1F)C(N)=O [Compound 30, (2S)-2-({[(4-Bromo-2-fluorophenyl)amino]carbonyl}amino)pentanamide]
  EC50: 56 nM
  FPRL-1 Ga16-CHO (Rel. eff.): (1.07)

## CCC[C@H](NC(=O)Nc1ccc(Br)cc1)C(N)=O [Compound 31, (2S)-2-{[(4-Bromophenyl)carbamoyl]amino} pentanamide]
  EC50: 109 nM
  FPRL-1 Ga16-CHO (Rel. eff.): (0.97)
